Experiments:
[1] = Metabolic stability in human liver microsomes; assay type: in vitro ADME; settings: values marked * average of two experiments; for microsomal CLint at 0.2 μM: pH 7.4, intrinsic clearance, read-out: CLint(mic); for CLint scaled at 0.2 μM: pH 7.4, scaled from CLint(mic)
Method: Microsomal Assay: Human liver microsomes (20 mg/mL) are obtained from Xenotech, LLC (Lenexa, KS). β-nicotinamide adenine dinucleotide phosphate, reduced form (NADPH), magnesium chloride (MgCl2), and dimethyl sulfoxide (DMSO) are purchased from Sigma-Aldrich.
Determination of Metabolic Stability: 7.5 mM stock solutions of test compounds of the above structural formula (e.g., of an embodiment or aspect of embodiment thereof described herein), or pharmaceutically acceptable salt thereof, are prepared in DMSO. […] The diluted microsomes are added to wells of a 96-well deep-well polypropylene plate in triplicate. […] Reactions are initiated by addition of pre-warmed NADPH solution. The final reaction volume is 0.5 mL and contains 4.0 mg/mL human liver microsomes, 0.2 μM test compound, and 2 mM NADPH in 0.1 M potassium phosphate buffer, pH 7.4, and 3 mM MgCl2. The reaction mixtures are incubated at 37° C., and […] aliquots are removed at 0, 5, 10, 20, and 30 minutes and added to shallow-well 96-well plates which contain […] of ice-cold ACN (acetonitrile) with internal standard to stop the reactions. The plates are stored at 4° C. for 20 minutes after which […] of water is added to the wells of the plate before centrifugation to pellet precipitated proteins. Supernatants are transferred to another 96-well plate and analyzed for amounts of parent remaining by LC-MS/MS using an Applied Bio-systems API 4000 mass spectrometer. The same procedure is followed for the non-deuterated counterpart of the compound and the positive control, 7-ethoxycoumarin (1 μM). Testing is done in triplicate.
Data analysis: The in vitro Ti/s for test compounds are calculated from the slopes of the linear regression of % parent remaining (In) vs incubation time relationship.
[formula] • k=−[slope of linear regression of % parent remaining (In) vs incubation time] • The apparent intrinsic clearance is calculated using the following equation: […]
Data analysis is performed using Microsoft Excel Software.

5-HT2A receptor = target: T1, 5-HT2A receptor (Homo sapiens, UniProt P28223); test: Calcium mobilization assay, agonist format, 5-HT2A receptor; assay type: cell-based; settings: read-out: 5-HT2A agonist Efficacy @ 10 µM
T1 construct: host or cells: unnamed cell lines
T1 sequence (P28223 whole entry): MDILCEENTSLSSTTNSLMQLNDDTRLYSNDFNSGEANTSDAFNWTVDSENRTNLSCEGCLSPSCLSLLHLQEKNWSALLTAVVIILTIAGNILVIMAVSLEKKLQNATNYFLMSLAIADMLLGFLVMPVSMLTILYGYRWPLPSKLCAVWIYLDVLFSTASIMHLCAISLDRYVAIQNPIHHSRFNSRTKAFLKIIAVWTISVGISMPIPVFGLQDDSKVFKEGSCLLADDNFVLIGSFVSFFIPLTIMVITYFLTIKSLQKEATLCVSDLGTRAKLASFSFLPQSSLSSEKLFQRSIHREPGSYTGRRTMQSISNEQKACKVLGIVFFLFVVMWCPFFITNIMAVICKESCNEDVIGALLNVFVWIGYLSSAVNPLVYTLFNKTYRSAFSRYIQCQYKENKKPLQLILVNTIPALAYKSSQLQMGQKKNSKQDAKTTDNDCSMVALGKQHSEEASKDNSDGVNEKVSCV
Method: (§1) Protocol—in vitro testing at select 5-hydroxytryptamine (5-HT; serotonin) receptors was conducted.
(§2) • 1. Cell lines were expanded from freezer stocks according to standard procedures. • 2. Cells were seeded in a total volume of 20 μL into black-walled, clear-bottom, Poly-D-lysine coated 384-well microplates and incubated at 37° C. for the appropriate time prior to testing.
(§3) • 1. Assays were performed in 1×Dye Loading Buffer consisting of 1× Dye, 1× Additive A and 2.5 mM Probenecid in HBSS/20 mM Hepes. Probenicid was prepared fresh. • 2. Cells were loaded with dye prior to testing. Media was aspirated from cells and replaced with 20 μL Dye Loading Buffer. • 3. Cells were incubated for 30-60 minutes at 37° C.
(§4) • 1. For agonist determination, cells were incubated with sample to induce response. • 2. After dye loading, cells were removed from the incubator and 10 μL HBSS/20 mM Hepes was added. 3× vehicle was included in the buffer when performing agonist dose curves to define • the EC80 for subsequent antagonist assays. Cells were incubated for 30 minutes at room temperature in the dark to equilibrate plate temperature. • 3. Intermediate dilution of sample stocks was performed to generate 4× sample in assay buffer. • 4. Compound agonist activity was measured on a FLIPR Tetra (MDS). Calcium mobilization was monitored for 2 minutes and 10 μL 4× sample in HBSS/20 mM Hepes was added to the cells 5 seconds into the assay.
(§5) • 1. Compound activity was analyzed using CBIS data analysis suite (ChemInnovation, CA). • 2. For agonist mode assays, percentage activity is calculated using the following formula: % Activity=100%×(mean RFU of test sample−mean RFU of vehicle control)/(mean MAX RFU control ligand −mean RFU of vehicle control). • 3. For positive allosteric mode assays, percentage modulation was calculated using the following formula: % Modulation=100%×((mean RFU of test sample−mean RFU of EC20 control)/(mean RFU of MAX control ligand −mean RFU of EC20 control)). • 4. For antagonist and negative allosteric modulation mode assays, percentage inhibition is calculated using the following formula: % Inhibition=100%×(1−(mean RFU of test sample−mean RFU of vehicle control)/(mean RFU of EC80 control−mean RFU of vehicle control)).
(§6) As discussed above, agonism, or partial agonism, of the 5-HT2A receptor (also known as positive allosteric modulation, or 5-HT2A modulation) is useful for the treatment of neurological and psychiatric disorders. For example, 5-HT2A agonism has been correlated with the promotion of neural plasticity (Ly et al., 2018). Agonism of the 5-HT2B receptor has been associated with unwanted cardiac valvulopathy side-effects, a form of cardio-toxicity (Rothman et al., Circulation. 2000, 102, 2836-2841; Fitzgerald et al., Molecular Pharmacology 2000, 57, 75-81). […] Antagonists of the 5-HT2C receptor are also useful for the treatment of neurological and psychiatric disorders (Kennett et al., Neuropharmacology 1997, 36, 609-620).

5-HT2B receptor = target: T2, 5-HT2B receptor (Homo sapiens, UniProt P41595); test: Calcium mobilization assay, agonist format, 5-HT2B receptor; assay type: cell-based; settings: read-out: 5-HT2B agonist Efficacy @ 5 µM
T2 construct: host or cells: unnamed cell lines
T2 sequence (P41595 whole entry): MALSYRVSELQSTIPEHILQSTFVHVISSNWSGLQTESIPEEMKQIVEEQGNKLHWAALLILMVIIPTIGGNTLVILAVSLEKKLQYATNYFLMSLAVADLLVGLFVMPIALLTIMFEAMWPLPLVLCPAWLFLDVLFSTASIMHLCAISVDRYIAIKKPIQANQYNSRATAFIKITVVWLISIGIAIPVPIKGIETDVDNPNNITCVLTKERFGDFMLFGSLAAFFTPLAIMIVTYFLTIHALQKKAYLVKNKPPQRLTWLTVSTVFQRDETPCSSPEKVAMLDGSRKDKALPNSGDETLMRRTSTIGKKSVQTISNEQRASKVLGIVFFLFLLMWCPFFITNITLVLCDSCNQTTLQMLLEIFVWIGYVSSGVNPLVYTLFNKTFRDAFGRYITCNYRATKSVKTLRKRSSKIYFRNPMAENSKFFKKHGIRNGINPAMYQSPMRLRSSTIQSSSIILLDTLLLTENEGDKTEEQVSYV
Method: as §1, §2, §3, §4, §5, §6

5-HT2C receptor = target: T3, 5-HT2C receptor (Homo sapiens, UniProt P28335); test: Calcium mobilization assay, antagonist format, 5-HT2C receptor; assay type: cell-based; parameters: dose or concentration left out as unconfirmed
T3 construct: host or cells: unnamed cell lines
T3 sequence (P28335 33-458): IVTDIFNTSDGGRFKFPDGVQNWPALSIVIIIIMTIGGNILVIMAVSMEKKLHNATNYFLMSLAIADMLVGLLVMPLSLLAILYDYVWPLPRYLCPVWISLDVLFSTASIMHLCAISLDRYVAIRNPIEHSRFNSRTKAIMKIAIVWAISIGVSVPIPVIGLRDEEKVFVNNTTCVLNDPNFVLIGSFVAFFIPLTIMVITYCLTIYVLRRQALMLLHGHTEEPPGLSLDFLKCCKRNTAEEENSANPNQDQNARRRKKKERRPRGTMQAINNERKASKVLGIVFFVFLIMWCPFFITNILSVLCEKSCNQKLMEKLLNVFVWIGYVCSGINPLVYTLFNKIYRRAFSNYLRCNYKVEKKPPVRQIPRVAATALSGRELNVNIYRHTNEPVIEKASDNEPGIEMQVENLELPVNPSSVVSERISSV
Method: as §1, §2, §3
• 1. For antagonist determination, cells were pre-incubated with sample followed by agonist challenge at the EC80 concentration. • 2. Intermediate dilution of sample stocks was performed to generate 3× sample in assay buffer. • 3. After dye loading, cells were removed from the incubator and […] 3× sample was added. Cells were incubated for 30 minutes at room temperature in the dark to equilibrate plate temperature. Vehicle concentration was 1%. • 4. Compound antagonist activity was measured on a FLIPR Tetra (MDS). Calcium mobilization was monitored for 2 minutes and 10 μL EC80 agonist in HBSS/20 mM Hepes was added to the cells 5 seconds into the assay.
as §5, §6

SMILES	half-life at 0.2 μM ([1]; pH 7.4, half life)	microsomal CLint at 0.2 μM [1]	CLint scaled at 0.2 μM [1]	activation at 10 µM (5-HT2A receptor)	activation at 5 µM (5-HT2B receptor)	inhibition (5-HT2C receptor)	CLint(mic) ([1]; intrinsic clearance)
COc1ccc2c3c([nH]c2c1)CCNCC3 [8-methoxy-1,2,3,4,5,6-hexahydroazepino[4,5-b]indole, reference compound]	1.82 h	12.7 µL/min/mg	11.4 mL/min/kg	85.3%	0.6%	98.1%	–
CN1CCc2[nH]c3cc(S(F)(F)(F)(F)F)ccc3c2CC1 [Compound 109, pentafluoro-(3-methyl-2,4,5,6-tetrahydro-1H-azepino[4,5-b]indol-8-yl)-λ^6-sulfane]	–	–	–	13.7%	8.5%	101%	–
CN1CCc2[nH]c3cccc(S(F)(F)(F)(F)F)c3c2CC1 [Compound 110, pentafluoro-(3-methyl-2,4,5,6-tetrahydro-1H-azepino[4,5-b]indol-10-yl)-λ^6-sulfane]	–	–	–	8.9%	4%	103%	–
CN1CCc2[nH]c3cc(OC4CC4)ccc3c2CC1 [Compound 117, 8-(cyclopropoxy)-3-methyl-2,4,5,6-tetrahydro-1H-azepino[4,5-b]indole]	–	–	–	10.4%	1.7%	99.7%	–
CN1CCc2[nH]c3c4c(ccc3c2CC1)OCCC4 [Compound 122, 9-methyl-2,3,7,8,9,10,11,12-octahydro-1H-azepino[4,5-b]pyrano[2,3-g]indole]	–	–	–	54%	-0.8%	98.9%	–
CN1CCc2[nH]c3c4c(ccc3c2CC1)OCC4 [Compound 124, 8-methyl-1,2,6,7,8,9,10,11-octahydroazepino[4,5-b]furo[2,3-g]indole]	–	–	–	83.8%	-0.7%	93.1%	–
CN1CCc2[nH]c3cc(C#N)ccc3c2CC1 [Compound 136, 3-methyl-2,4,5,6-tetrahydro-1H-azepino[4,5-b]indole-8-carbonitrile]	–	–	–	41.8%	-1%	98.6%	–
CN1CCc2[nH]c3cccc(C#N)c3c2CC1 [Compound 138, 3-methyl-2,4,5,6-tetrahydro-1H-azepino[4,5-b]indole-10-carbonitrile]	–	–	–	15.4%	-0.4%	100%	–
COc1ccc2c3c([nH]c2c1)CCN(CCO)CC3 [Compound 140, 2-(8-methoxy-2,4,5,6-tetrahydro-1H-azepino[4,5-b]indol-3-yl)ethanol]	–	–	–	48.1%	-0.9%	93.8%	–
COc1ccc2c3c([nH]c2c1)CCN(CCS(C)(=O)=O)CC3 [Compound 143, 8-methoxy-3-(2-methylsulfonylethyl)-2,4,5,6-tetrahydro-1H-azepino[4,5-b]indole]	–	–	–	42.1%	-0.1%	97.2%	–
COc1ccc2c3c([nH]c2c1)CCN(CCN(C)C)CC3 [Compound 144, 2-(8-methoxy-2,4,5,6-tetrahydro-1H-azepino[4,5-b]indol-3-yl)-N,N-dimethyl-ethanamine]	–	–	–	-0.7%	-0.5%	3.1%	–
[2H]C([2H])([2H])N1CCc2[nH]c3cc(OC4CC4)ccc3c2CC1 [Compound 145, 8-cyclopropoxy-3-(^2H3)methyl-1H,2H,3H,4H,5H,6H-azepino[4,5-b]indole]	–	–	–	5.8%	1.5%	101%	–
[2H]C([2H])([2H])Oc1ccc2c3c([nH]c2c1)CCN(C1CC1)CC3 [Compound 146, 3-cyclopropyl-8-(trideuteriomethoxy)-2,4,5,6-tetrahydro-1H-azepino[4,5-b]indole]	–	–	–	69.4%	9%	103%	–
COc1ccc2c3c([nH]c2c1)CCN(C1CC1)CC3 [Compound 164, 3-cyclopropyl-8-methoxy-2,4,5,6-tetrahydro-1H-azepino[4,5-b]indole]	–	–	–	61%	2.7%	100%	–
c1cc2c3c([nH]c2cc1OC1CC1)CCN(C1CC1)CC3 [Compound 165, 8-cyclopropoxy-3-cyclopropyl-1,2,3,4,5,6-hexahydroazepino[4,5-b]indole]	–	–	–	-2.7%	0.9%	71.7%	–
CN1CCc2[nH]c3cc4c(cc3c2CC1)OCC4 [Compound 166, 8-methyl-2,3,5,6,7,8,9,10-octahydroazepino[4,5-b]furo[2,3-f]indole]	–	–	–	53.5%	0.3%	97.9%	–
O=C(O)Cc1ccccc1Nc1c(Cl)cccc1Cl [Diclofenac, reference compound]	–	–	182 mL/min/kg	–	–	–	201.9* μL/min/mg
Cc1cc2c(cc1Cl)N(C(=O)Nc1ccc(Oc3cccnc3C)nc1)CC2 [SB242084, reference compound]	–	–	–	–	–	101%	–
C[C@]12CC[C@H]3[C@@H](CCC4=CC(=O)CC[C@@]43C)[C@@H]1CC[C@@H]2O [Testosterone, reference compound]	–	114 µL/min/mg	103 mL/min/kg	–	–	–	–
